Laboratory results: US5498780A, “Platinum complex and malignant tumor treating drug containing the same” (SS Pharmaceutical Co., Ltd., priority 1994, dated 1996)

Key:
[1] = tested on: murine P388 leukemia cell; assay: Antitumor effect on murine P388 leukemia cell; type: in vivo, murine; male CDF1 mice; conditions: for ILSmax (maximum percent increase in life-span) / ILS50 (dose which shows 50% of the ILS value by 5 administrations) / dose corresponding to ILSmax: P388, i.p. once a day for 5 days; for ILSmax (maximum percent increase in life-span): 30 days observation; for ILS50 (dose which shows 50% of the ILS value by 5 administrations): linear regression; for TI (therapeutic index, LD50 value/ILS50 value): P388
Method: (§1) Murine L1210 leukemia cells (1×10^5 cells) were inoculated peritoneally into six-week-old male CDF1 mice on day 0. From the next day after the inoculation, a drug (the compound of the invention or a compound for comparison) was administered peritoneally once a day for 5 days. After 30 days of observation, the percent increase in life-span (ILS) was calculated as follows: […]
(§2) T: mean survival days of the drug-treated group
(§3) C: mean survival days of control group
(§4) In these tables, ILSmax means maximum ILS value (%), and corresponding dose (mg/kg) is Shown in parenthesis.
Antitumor effect on murine P388 leukemia cell:
The test of Test Example 1 was repeated except that 1×10^6 of murine P388 leukemia cells were used instead of 1×10^5 of murine L1210 leukemia cells.

[2] = tested on: murine L1210 leukemia cell; assay: Antitumor effect on murine L1210 leukemia cell (increase in life-span of inoculated mice); type: in vivo, murine; male CDF1 mice; conditions: for ILSmax (maximum percent increase in life-span) / ILS50 (dose which shows 50% of the ILS value by 5 administrations) / dose corresponding to ILSmax: L1210, i.p. once a day for 5 days; for ILSmax (maximum percent increase in life-span): 30 days observation; for ILS50 (dose which shows 50% of the ILS value by 5 administrations): linear regression; for TI (therapeutic index, LD50 value/ILS50 value): L1210
Method: as §1, §2, §3, §4

[3] = tested on: cisplatin-resistant murine L1210 leukemia cell (L1210/DDP); assay: Antitumor effect on cisplatin-resistant murine L1210 leukemia cell (L1210/DDP); type: in vivo, murine; male CDF1 mice; conditions: for ILSmax (maximum percent increase in life-span) / dose corresponding to ILSmax / ILS50 (dose which shows 50% of the ILS value by 5 administrations): i.p. once a day for 5 days; for ILSmax (maximum percent increase in life-span): 30 days observation; for ILS50 (dose which shows 50% of the ILS value by 5 administrations): linear regression
Method: as §1, §2, §3
In these tables, ILSmax means maximum ILS value (%), and corresponding dose (mg/kg) is Shown in parenthesis. In this test, cisplatin and carboplatin were respectively tested in each test lot for accurate comparison.
Antitumor effect on cisplatin-resistant murine L1210 leukemia cell (L1210/DDP):
The test of Test Example 1 was repeated except that cisplatin-resistant murine L1210 leukemia cell (L1210/DDP) was used instead of murine L1210 leukemia cell.

[4] = 50% lethal dose by single peritoneal administration, obtained at the time of the dose setting; type: in vivo, CDF1 mice
Excerpt: as §4

| Structure (SMILES) | ILSmax (maximum percent increase in life-span) ([1]; Table 8 test lot) [%] | ILSmax (maximum percent increase in life-span) ([1]; Table 10 test lot) [%] | ILS50 (dose which shows 50% of the ILS value by 5 administrations) ([1]; Table 8 test lot) [mg/kg] | ILS50 (dose which shows 50% of the ILS value by 5 administrations) ([1]; Table 10 test lot) [mg/kg] | dose corresponding to ILSmax ([1]; Table 8 test lot) [mg/kg] | dose corresponding to ILSmax ([1]; Table 10 test lot) [mg/kg] | TI (therapeutic index, LD50 value/ILS50 value) ([1]; Table 8 test lot) | TI (therapeutic index, LD50 value/ILS50 value) ([1]; Table 10 test lot) | ILSmax (maximum percent increase in life-span) ([2]; Table 4 test lot) [%] | ILSmax (maximum percent increase in life-span) ([2]; Table 5 test lot) [%] | ILS50 (dose which shows 50% of the ILS value by 5 administrations) ([2]; Table 4 test lot) [mg/kg] | ILS50 (dose which shows 50% of the ILS value by 5 administrations) ([2]; Table 5 test lot) [mg/kg] | dose corresponding to ILSmax ([2]; Table 4 test lot) [mg/kg] | dose corresponding to ILSmax ([2]; Table 5 test lot) [mg/kg] | ILSmax (maximum percent increase in life-span) ([3]; Table 6 test lot) [%] | ILSmax (maximum percent increase in life-span) ([3]; Table 7 test lot) [%] | dose corresponding to ILSmax ([3]; Table 6 test lot) [mg/kg] | dose corresponding to ILSmax ([3]; Table 7 test lot) [mg/kg] | LD50 (50% lethal dose) [4] [mg/kg] | also measured |
| --- | --- | --- | --- | --- | --- | --- | --- | --- | --- | --- | --- | --- | --- | --- | --- | --- | --- | --- | --- | --- |
| N.N.O=C([O-])C1(C(=O)[O-])CCC1.[Pt+2] [Carboplatin, carboplatin, reference compound] | 73.1 | 57.3 | 10.5 | 13.8 | 16.0 | 32.0 | 23.3 | 17.8 | 50.6 | 72.5 | 41.0 | 33.9 | 64.0 | 64.0 | 8.5 | 14.3 | 16.0 | 64.0 | 245.0 | ILSmax (maximum percent increase in life-span) ([1]; Table 9 test lot): 79.8%; ILS50 (dose which shows 50% of the ILS value by 5 administrations) ([1]; Table 9 test lot): 12.1 mg/kg; dose corresponding to ILSmax ([1]; Table 9 test lot): 32.0 mg/kg; TI (therapeutic index, LD50 value/ILS50 value) ([1]; Table 9 test lot): 20.2; TI (therapeutic index, LD50 value/ILS50 value) ([2]; Table 4 test lot): 6.0; TI (therapeutic index, LD50 value/ILS50 value) ([2]; Table 5 test lot): 7.2 |
| N.N.[Cl][Pt][Cl] [Cisplatin, cisplatin, reference compound] | > 120.4 | > 120.9 | < 0.5 | < 0.5 | 4.0 | 4.0 |  |  | 88.2 | 90.0 | 1.3 | 1.1 | 4.0 | 4.0 | 0.9 | 5.1 | 4.0 | 4.0 |  | ILSmax (maximum percent increase in life-span) ([1]; Table 9 test lot): > 156.7%; ILS50 (dose which shows 50% of the ILS value by 5 administrations) ([1]; Table 9 test lot): < 0.5 mg/kg; dose corresponding to ILSmax ([1]; Table 9 test lot): 4.0 mg/kg |
| N.NC1CCCCC1.[Cl][Pt][Cl] [Comparative drug A, cis-dichloroammine cyclohexylamineplatinum(II), reference compound] | 101.9 |  | < 1.0 |  | 4.0 |  | > 31.3 |  | 97.6 |  | < 1.0 |  | 8.0 |  | > 157.5 |  | 1.0 |  | 31.3 | TI (therapeutic index, LD50 value/ILS50 value) ([2]; Table 4 test lot): > 31.3; TI (therapeutic index, LD50 value/ILS50 value) ([3]; Table 6 test lot): > 31.3; ILS50 (dose which shows 50% of the ILS value by 5 administrations) ([3]; Table 6 test lot): < 1.0 mg/kg |
| CNO.N.[Cl][Pt][Cl] [Compound No. 1, cis-dichloroammine (N-methylhydroxylamine)platinum(II)] | > 136.1 |  | < 0.5 |  | 4.0 |  | > 31.2 |  |  |  |  |  |  |  |  |  |  |  | 15.6 |  |
| CON.N.[Cl][Pt][Cl] [Compound No. 2, cis-dichloroammine (O-methylhydroxylamine)platinum(II)] | 126.9 |  | < 0.5 |  | 4.0 |  | > 44.2 |  |  |  |  |  |  |  |  |  |  |  | 22.1 |  |
| CCO[NH][Pt]([Cl])([Cl])[NH]C(C)C [Compound No. 12, cis-dichloro(isopropylamine) (O-ethylhydroxylamine)platinum(II)] |  |  |  |  |  |  |  |  |  | 102.5 |  | 1.5 |  | 8.0 |  | > 206.1 |  | 2.0 | 22.1 | TI (therapeutic index, LD50 value/ILS50 value) ([2]; Table 5 test lot): 14.7; TI (therapeutic index, LD50 value/ILS50 value) ([3]; Table 7 test lot): > 22.1; ILS50 (dose which shows 50% of the ILS value by 5 administrations) ([3]; Table 7 test lot): < 1.0 mg/kg |
| CCON.N.O=C1[O][Pt][O]C(=O)C12CCC2 [Compound No. 15, (1,1-cyclobutane dicarboxylate)ammine (O-ethylhydroxylamine)platinum(II)] |  | 93.6 |  | 8.2 |  | 32.0 |  | 21.6 |  |  |  |  |  |  |  |  |  |  | 176.8 |  |
| CCCO[NH][Pt]1([NH2])[O]C(=O)C2(CCC2)C(=O)[O]1 [Compound No. 16, (1,1-cyclobutane dicarboxylate)ammine (O-propylhydroxylamine)platinum(II)] |  | 72.7 |  | 8.2 |  | 8.0 |  | 21.6 |  |  |  |  |  |  |  |  |  |  | 176.8 |  |
| CC(C)(C)O[NH][Pt]1([NH2])[O]C(=O)C2(CCC2)C(=O)[O]1 [Compound No. 17, (1,1-cyclobutane dicarboxylate)ammine (O-tert-butylhydroxylamine)platinum(II)] |  | 72.7 |  | 12.4 |  | 32.0 |  | 20.2 |  |  |  |  |  |  |  |  |  |  | 250.0 |  |
